{"source": "patent US20240398777A1", "about": "“METHOD OF TREATING SYMPTOMS OF PRADER-WILLI SYNDROME” (HARMONY BIOSCIENCES, LLC, priority 2023, published 2024)", "type_in_all_cases": "in vivo, human", "key": {"[1]": {"test_system": "patients with PWS", "experiment": "Phase 2 study: treatment-emergent adverse events", "details": "for Treatment-related TEAEs: possibly, probably, or definitely related to study drug", "experimental": "(§1) A study was carried out to evaluate the efficacy and safety of pitolisant for the treatment of EDS in subjects with PWS. This was a phase 2, randomized, placebo-controlled, proof-of-concept study. Children (aged 6 to <12 years), adolescents (aged 12 to <18 years), and adults (aged 18-65 years) with a confirmed diagnosis of PWS were randomly assigned to receive low-dose pitolisant (8.9 mg in children, 13.35 mg in adolescents, and 17.8 mg in adults) or high dose pitolisant (17.8 mg in children, 26.7 mg in adolescents, and 35.6 mg in adults), or placebo (see FIG. 1). All doses are expressed in terms of pitolisant freebase.\n(§2) The 11-week double-blind treatment period consisted of a 3-week titration phase and an 8-week stable-dose phase."}, "[2]": {"test_system": "behavioral problems in subjects with PWS", "experiment": "Phase 2 study: Aberrant Behavior Checklist-2 (ABC-2)", "experimental": "as §1, §2\n(§3) Secondary/exploratory endpoints included change from baseline in Caregiver Global Impression of Severity (CaGI-S) for EDS, behavioral disturbance (Aberrant Behavior Checklist-2 [ABC-2]), and hyperphagia (Hyperphagia Questionnaire for Clinical Trials [HQ-CT] in conjunction with the Food Safe Zone Questionnaire [FSZQ]). The primary time frame of interest was from baseline to Week 11.\nThe ABC-2 is a widely used and validated questionnaire that can assess changes in behavioral problems, and is particularly suitable for assessing behavioral changes in subjects with intellectual and developmental disabilities. The ABC-2 questions are subdivided into five domains (irritability, social withdrawal, hyperactivity/noncompliance, inappropriate speech, and stereotypic behavior). Generally, a reduction of 2 or more points in a domain of the ABC-2 is considered clinically meaningful. ABC-2 was used in this trial to determine if pitolisant improved or reduced behavioral problems experienced by subjects living with PWS."}, "[3]": {"test_system": "hyperphagia in subjects with PWS", "experiment": "Phase 2 study: Hyperphagia Questionnaire for Clinical Trials (HQ-CT)", "details": "Week 11; children (6 to <12 years) and adults (18 to 65 years)", "experimental": "as §1, §2, §3"}, "[4]": {"test_system": "EDS severity in subjects with PWS", "experiment": "Phase 2 study: Caregiver Global Impression of Severity (CaGI-S) for EDS", "details": "Week 11", "experimental": "as §1, §2, §3"}, "[5]": {"test_system": "excessive daytime sleepiness (EDS) in subjects with PWS", "experiment": "Phase 2 randomized placebo-controlled study: ESS-CHAD (parent/caregiver version)", "experimental": "as §1, §2\nThe primary efficacy endpoint was the change from baseline to Week 11 in total score for the parent/caregiver version of the Epworth Sleepiness Scale for Children and Adolescents (ESS-CHAD), which is a validated measurement for sleep propensity. (See Janssen K C, et al. Sleep Med. 2017; 33:30-35; see also Patel V P, et al. J. Clin. Sleep Med. 2022; 18 (2): 485-496). A separate analysis was treatment response defined as ESS-CHAD score reduction of ≥3 points from baseline or Week 11 score of ≤10."}, "[6]": {"details": "pitolisant-treated patients (doses pooled)"}, "[7]": {"details": "adolescents (12 to <18 years), higher-dose, n = 6"}, "[8]": {"details": "adolescents (12 to <18 years), lower-dose, n = 4"}, "[9]": {"details": "adults (18 to 65 years), higher-dose, n = 5"}, "[10]": {"details": "adults (18 to 65 years), lower-dose, n = 3"}, "[11]": {"details": "all patient groups, high dose pitolisant, n = 22"}, "[12]": {"details": "all patient groups, low dose pitolisant, n = 18"}}, "data": [{"molecule": "Clc1ccc(CCCOCCCN2CCCCC2)cc1", "note": "[pitolisant]", "values": [{"measurement": "Anxiety", "setting": "[1]; high-dose pitolisant, n = 22", "result": "1 (4.5) n (%)"}, {"measurement": "Any TEAE", "setting": "[1]; high-dose pitolisant, n = 22", "result": "11 (50.0) n (%)"}, {"measurement": "Irritability", "setting": "[1]; high-dose pitolisant, n = 22", "result": "2 (9.1) n (%)"}, {"measurement": "Most common TEAEs", "setting": "[1]; high-dose pitolisant, n = 22", "result": "1 (4.5) n (%)"}, {"measurement": "Serious TEAEs", "setting": "[1]; high-dose pitolisant, n = 22", "result": "0 n (%)"}, {"measurement": "Severe TEAEs", "setting": "[1]; high-dose pitolisant, n = 22", "result": "0 n (%)"}, {"measurement": "Treatment-related TEAEs", "setting": "[1]; high-dose pitolisant, n = 22", "result": "4 (18.2) n (%)"}, {"measurement": "Anxiety", "setting": "[1]; low-dose pitolisant, n = 20", "result": "4 (20.0) n (%)"}, {"measurement": "Any TEAE", "setting": "[1]; low-dose pitolisant, n = 20", "result": "13 (65.0) n (%)"}, {"measurement": "Irritability", "setting": "[1]; low-dose pitolisant, n = 20", "result": "3 (15.0) n (%)"}, {"measurement": "Most common TEAEs", "setting": "[1]; low-dose pitolisant, n = 20", "result": "4 (20.0) n (%)"}, {"measurement": "Serious TEAEs", "setting": "[1]; low-dose pitolisant, n = 20", "result": "0 n (%)"}, {"measurement": "Severe TEAEs", "setting": "[1]; low-dose pitolisant, n = 20", "result": "0 n (%)"}, {"measurement": "Treatment-related TEAEs", "setting": "[1]; low-dose pitolisant, n = 20", "result": "7 (35.0) n (%)"}, {"measurement": "safety and tolerability versus known safety profile", "setting": "[1]; patients with PWS", "result": "no new safety signals were observed"}, {"measurement": "adverse event anxiety, incidence", "setting": "[1]; [6]", "result": 13.0, "unit": "%"}, {"measurement": "adverse event irritability, incidence", "setting": "[1]; [6]", "result": 17.4, "unit": "%"}, {"measurement": "mean reduction on all ABC-2 domains versus placebo", "setting": "[2]; Week 11, children (6 to <12 years), higher-dose pitolisant", "result": "greater for higher-dose pitolisant compared with placebo"}, {"measurement": "ABC-2 Hyperactivity/noncompliance mean change from baseline to Week 11", "setting": "[2]; [7]", "result": "−3.8"}, {"measurement": "ABC-2 Inappropriate speech mean change from baseline to Week 11", "setting": "[2]; [7]", "result": "−1.7"}, {"measurement": "ABC-2 Irritability mean change from baseline to Week 11", "setting": "[2]; [7]", "result": "−5.0"}, {"measurement": "ABC-2 Social withdrawal mean change from baseline to Week 11", "setting": "[2]; [7]", "result": "−3.7"}, {"measurement": "ABC-2 Stereotypic behavior mean change from baseline to Week 11", "setting": "[2]; [7]", "result": "−0.5"}, {"measurement": "ABC-2 Hyperactivity/noncompliance mean change from baseline to Week 11", "setting": "[2]; [8]", "result": 0.0}, {"measurement": "ABC-2 Inappropriate speech mean change from baseline to Week 11", "setting": "[2]; [8]", "result": "−0.8"}, {"measurement": "ABC-2 Irritability mean change from baseline to Week 11", "setting": "[2]; [8]", "result": "−4.8"}, {"measurement": "ABC-2 Social withdrawal mean change from baseline to Week 11", "setting": "[2]; [8]", "result": "−3.3"}, {"measurement": "ABC-2 Stereotypic behavior mean change from baseline to Week 11", "setting": "[2]; [8]", "result": 0.3}, {"measurement": "ABC-2 Hyperactivity/noncompliance mean change from baseline to Week 11", "setting": "[2]; [9]", "result": "−5.4"}, {"measurement": "ABC-2 Inappropriate speech mean change from baseline to Week 11", "setting": "[2]; [9]", "result": "−2.2"}, {"measurement": "ABC-2 Irritability mean change from baseline to Week 11", "setting": "[2]; [9]", "result": "−2.8"}, {"measurement": "ABC-2 Social withdrawal mean change from baseline to Week 11", "setting": "[2]; [9]", "result": "−2.4"}, {"measurement": "ABC-2 Stereotypic behavior mean change from baseline to Week 11", "setting": "[2]; [9]", "result": "−2.6"}, {"measurement": "ABC-2 Hyperactivity/noncompliance mean change from baseline to Week 11", "setting": "[2]; [10]", "result": 1.0}, {"measurement": "ABC-2 Inappropriate speech mean change from baseline to Week 11", "setting": "[2]; [10]", "result": 0.7}, {"measurement": "ABC-2 Irritability mean change from baseline to Week 11", "setting": "[2]; [10]", "result": "−3.0"}, {"measurement": "ABC-2 Social withdrawal mean change from baseline to Week 11", "setting": "[2]; [10]", "result": "−1.0"}, {"measurement": "ABC-2 Stereotypic behavior mean change from baseline to Week 11", "setting": "[2]; [10]", "result": "−0.3"}, {"measurement": "ABC-2 Hyperactivity/noncompliance mean change from baseline to Week 11", "setting": "[2]; [11]", "result": "−4.6"}, {"measurement": "ABC-2 Inappropriate speech mean change from baseline to Week 11", "setting": "[2]; [11]", "result": "−2.0"}, {"measurement": "ABC-2 Irritability mean change from baseline to Week 11", "setting": "[2]; [11]", "result": "−4.8"}, {"measurement": "ABC-2 Social withdrawal mean change from baseline to Week 11", "setting": "[2]; [11]", "result": "−4.0"}, {"measurement": "ABC-2 Stereotypic behavior mean change from baseline to Week 11", "setting": "[2]; [11]", "result": "−1.2"}, {"measurement": "ABC-2 Hyperactivity/noncompliance mean change from baseline to Week 11", "setting": "[2]; [12]", "result": "−0.4"}, {"measurement": "ABC-2 Inappropriate speech mean change from baseline to Week 11", "setting": "[2]; [12]", "result": "−0.3"}, {"measurement": "ABC-2 Irritability mean change from baseline to Week 11", "setting": "[2]; [12]", "result": "−3.4"}, {"measurement": "ABC-2 Social withdrawal mean change from baseline to Week 11", "setting": "[2]; [12]", "result": "−1.9"}, {"measurement": "ABC-2 Stereotypic behavior mean change from baseline to Week 11", "setting": "[2]; [12]", "result": "−0.1"}, {"measurement": "reductions in three ABC-2 domains including irritability and hyperactivity/noncompliance", "setting": "[2]; high dose group", "result": "more than 4 points"}, {"measurement": "reduction in HQ-CT score versus placebo", "setting": "[3]", "result": "greater for pitolisant compared with placebo"}, {"measurement": "reduction in CaGI-S score versus placebo", "setting": "[4]; children (6 to <12 years) and adults", "result": "greater for pitolisant compared with placebo"}, {"measurement": "CaGI-S mean (SD) change", "setting": "[4]; higher-dose pitolisant group", "result": "−1.1 (1.1)"}, {"measurement": "CaGI-S mean (SD) change", "setting": "[4]; lower-dose pitolisant group", "result": "−1.0 (1.2)"}, {"measurement": "ESS-CHAD (Parent/Caregiver Version) mean change from baseline at Week 11", "setting": "[5]; 6 to <12 years, high-dose pitolisant (17.8 mg), n = 11", "result": "−5.5", "unit": "points"}, {"measurement": "ESS-CHAD (Parent/Caregiver Version) mean change from baseline at Week 11", "setting": "[5]; 6 to <12 years, low-dose pitolisant (8.9 mg), n = 12", "result": "−3.7", "unit": "points"}, {"measurement": "ESS-CHAD (Parent/Caregiver Version) mean change from baseline at Week 11", "setting": "[5]; 12 to <18 years, high-dose pitolisant (26.7 mg), n = 6", "result": "−4.2", "unit": "points"}, {"measurement": "ESS-CHAD (Parent/Caregiver Version) mean change from baseline at Week 11", "setting": "[5]; 12 to <18 years, low-dose pitolisant (13.35 mg), n = 4", "result": "−4.5", "unit": "points"}, {"measurement": "ESS-CHAD (Parent/Caregiver Version) mean change from baseline at Week 11", "setting": "[5]; 18 to 65 years, high-dose pitolisant (35.6 mg), n = 5", "result": "−4.4", "unit": "points"}, {"measurement": "ESS-CHAD (Parent/Caregiver Version) mean change from baseline at Week 11", "setting": "[5]; 18 to 65 years, low-dose pitolisant (17.8 mg), n = 3", "result": "−5.0", "unit": "points"}, {"measurement": "mean improvement from baseline in ESS-CHAD score versus placebo", "setting": "[5]; overall patient population, end of treatment, both dose groups", "result": "greater for both pitolisant dose groups compared with the placebo group"}, {"measurement": "ESS-CHAD response rate (score reduction of ≥3 points from baseline or score of ≤10 at Week 11) versus placebo", "setting": "[5]; study completers, Week 11, driven primarily by high-dose group", "result": "higher for pitolisant versus placebo"}]}]}
